# Earlier results as cited in patent US10799550B2, “Oral compositions comprising beta-escin for reducing acetaldehyde toxicity” (ESCILAB SP. Z O.O., priority 2016, dated 2020).
# System: ethanol absorption
# Conditions: rats
row,Compound,effect on ethanol absorption
1,C/C=C(\C)C(=O)O[C@H]1[C@H](OC(C)=O)[C@]2(CO)[C@H](O)C[C@]3(C)C(=CC[C@@H]4[C@@]5(C)CC[C@H](O[C@@H]6O[C@H](C(=O)O)[C@@H](O[C@@H]7O[C@H](CO)[C@@H](O)[C@H](O)[C@H]7O)[C@H](O)[C@H]6O[C@@H]6O[C@H](CO)[C@@H](O)[C@H](O)[C@H]6O)[C@](C)(CO)[C@@H]5CC[C@]43C)[C@@H]2CC1(C)C [escin Ia],inhibitory effect
2,C/C=C(/C)C(=O)O[C@H]1[C@H](OC(C)=O)[C@]2(CO)[C@H](O)C[C@]3(C)C(=CC[C@@H]4[C@@]5(C)CC[C@H](O[C@@H]6O[C@H](C(=O)O)[C@@H](O[C@@H]7O[C@H](CO)[C@@H](O)[C@H](O)[C@H]7O)[C@H](O)[C@H]6O[C@@H]6O[C@H](CO)[C@@H](O)[C@H](O)[C@H]6O)[C@](C)(CO)[C@@H]5CC[C@]43C)[C@@H]2CC1(C)C [escin Ib],inhibitory effect
3,C/C=C(\C)C(=O)O[C@H]1[C@H](OC(C)=O)[C@]2(CO)[C@H](O)C[C@]3(C)C(=CC[C@@H]4[C@@]5(C)CC[C@H](O[C@@H]6O[C@H](C(=O)O)[C@@H](O[C@@H]7O[C@H](CO)[C@@H](O)[C@H](O)[C@H]7O)[C@H](O)[C@H]6O[C@@H]6OC[C@@H](O)[C@H](O)[C@H]6O)[C@](C)(CO)[C@@H]5CC[C@]43C)[C@@H]2CC1(C)C [escin IIa],inhibitory effect
4,C/C=C(/C)C(=O)O[C@H]1[C@H](OC(C)=O)[C@]2(CO)[C@H](O)C[C@]3(C)C(=CC[C@@H]4[C@@]5(C)CC[C@H](O[C@@H]6O[C@H](C(=O)O)[C@@H](O[C@@H]7O[C@H](CO)[C@@H](O)[C@H](O)[C@H]7O)[C@H](O)[C@H]6O[C@@H]6OC[C@@H](O)[C@H](O)[C@H]6O)[C@](C)(CO)[C@@H]5CC[C@]43C)[C@@H]2CC1(C)C [escin IIb],inhibitory effect
